Assay results as given in patent US20250076312A1, “BIOMARKERS FOR THE TREATMENT OF INTERSTITIAL LUNG DISEASE” (Lung Therapeutics, LLC, priority 2021, published 2025).
Square brackets hold non-standard residues; d marks the D form. Ends that are not written are not given here.

Legend:
Assay type in all cases: cell-based, human
pSMAD2/3 [1] = assay: SMAD2/3 phosphorylation in IPF fibroblasts; details: 10 μM, compared to 1% DMSO vehicle or DMEM controls, FIG. 7A
Experimental: IPF fibroblasts were treated with DMEM, 1% DMSO vehicle, CSP-7 (10 μM), Var55 (10 μM), pirfenidone (500 μM), or nintedanib (100 nM). SMAD2/3 phosphorylation was determined by Western blot 24 hours following treatment. […] IPF epithelial cells were treated with DMEM (control), Var55 (100 μM), nintedanib (100 nM), control peptide 1 (CP1, 100 μM), or control peptide 2 (CP2, 100 μM). SMAD2/3 phosphorylation was determined by Western blot 24 hours following treatment. Phosphorylated SMAD2/3 protein levels were determined by normalizing to total SMAD2/3 protein (FIG. 7A and FIG. 7B). Primary lung fibroblasts from IPF patients were treated with 1% DMSO vehicle, CSP-7 (10 μM), Var55 (10 μM), pirfenidone (500 μM), or nintedanib (100 nM). SMAD2/3 phosphorylation was measured in IPF fibroblasts by a multiplex assay or Western blot analysis and phosphorylated SMAD2/3 was normalized to total SMAD2/3 protein.

pSMAD2/3 [2] = assay: SMAD2/3 phosphorylation in IPF epithelial cells; details: 100 μM, compared to DMEM control, FIG. 7B
Experimental: IPF fibroblasts were treated with DMEM, 1% DMSO vehicle, CSP-7 (10 μM), Var55 (10 μM), pirfenidone (500 μM), or nintedanib (100 nM). SMAD2/3 phosphorylation was determined by Western blot 24 hours following treatment. […] IPF epithelial cells were treated with DMEM (control), Var55 (100 μM), nintedanib (100 nM), control peptide 1 (CP1, 100 μM), or control peptide 2 (CP2, 100 μM). SMAD2/3 phosphorylation was determined by Western blot 24 hours following treatment. Phosphorylated SMAD2/3 protein levels were determined by normalizing to total SMAD2/3 protein (FIG. 7A and FIG. 7B).
Additional experiments were performed to determine whether phosphorylation of SMAD2/3 could be used as a biomarker associated with Var55 treatment. Epithelial cells from IPF patients were treated with DMEM (control), Var55 (100 μM), nintedanib (100 nM), control peptide 1 (CP1, 100 μM), or control peptide 2 (CP2, 100 μM). SMAD2/3 phosphorylation was measured in […] by a multiplex assay or Western blot analysis and phosphorylated SMAD2/3 was normalized to total SMAD2/3 protein.

CXCL7 [3] = assay: CXCL7 ELISA in supernatant of IPF lung macrophages; details: FIG. 14
Description: (§1) Lung macrophages were either left untreated or treated with Var55. Each line represents a biological replicate of lung macrophages from an individual control subject (triangles) or an individual with IPF (circles).
(§2) Lung macrophages were collected from humans with IPF or healthy controls and cultured in vitro. Lung macrophages were either left untreated or treated with Var55. Following treatment, supernatants from the lung macrophage cultures were collected and analyzed for CXCL7 expression by ELISA.

CXCL7 [4] = assay: CXCL7 ELISA in supernatant of healthy control lung macrophages; details: FIG. 14
Description: as §1, §2

LDH activity = system: LDH activity
Experimental: PCLSs were either untreated or treated with CSP-7 (10 μM or 100 μM), control peptide (CP, 100 μM), TGFβ (2 ng/mL), or pirfenidone (Pirf, 500 μM) and nintedanib (Nin, 100 nM). LDH activity was measured in the supernatant of IPF PCLSs on day 2 (left panel) or day 4 (right panel) following treatment. […] LDH activity was measured in the supernatant of IPF PCLSs on day 2 (left panel) or day 4 (right panel) following treatment.
LDH activity was also examined in the supernatants of IPF PCLSs either untreated (UT) or treated with CSP-7 (10 μM or 100 μM), control peptide (CP, 100 μM), TGFβ (2 ng/mL), or pirfenidone (Pirf, 500 μM) and nintedanib (Nin, 100 nM). LDH activity was measured using an LDH assay (Sigma-Aldrich, Cat No MAK066).

| Substance | phosphorylation of SMAD2/3 normalized to total SMAD2/3 (pSMAD2/3 [1]) | phosphorylation of SMAD2/3 normalized to total SMAD2/3 (pSMAD2/3 [2]) | CXCL7 in the supernatant (CXCL7 [3]) | CXCL7 in the supernatant (CXCL7 [4]) | LDH activity in PCLS supernatant (LDH activity) |
| --- | --- | --- | --- | --- | --- |
| Ac-aaEGKASFTTFTVTKGSaa-NH2 (Ac-[dA][dA]EGKASFTTFTVTKGS[dA][dA]-NH2; SMILES CC(=O)N[C@H](C)C(=O)N[C@H](C)C(=O)N[C@@H](CCC(=O)O)C(=O)NCC(=O)N[C@@H](CCCCN)C(=O)N[C@@H](C)C(=O)N[C@@H](CO)C(=O)N[C@@H](Cc1ccccc1)C(=O)N[C@H](C(=O)N[C@H](C(=O)N[C@@H](Cc1ccccc1)C(=O)N[C@H](C(=O)N[C@H](C(=O)N[C@H](C(=O)N[C@@H](CCCCN)C(=O)NCC(=O)N[C@@H](CO)C(=O)N[C@H](C)C(=O)N[C@H](C)C(N)=O)[C@@H](C)O)C(C)C)[C@@H](C)O)[C@@H](C)O)[C@@H](C)O) [Var55] | no difference | reduced phosphorylation | significant reduction | significant reduction | – |
| FTTFTVT [CSP-7, FTTFTVT] | – | – | – | – | slight reduction |
